# Experimental data as given in patent US12617799B2, “Pyrazolopyrimidinone compounds” (Orphagen Pharmaceuticals, Inc., priority 2021, dated 2026).
# Where two headings read alike, the source gives them in different places.
# Legend:
# human SF-1 = biological target: T1, human SF-1 (Homo sapiens, UniProt Q13285); assay: SF-1 Luc assay (Gal4DBD-SF-1LBD luciferase reporter in transfected CHO-K1 cells); type: cell-based; conditions: CHO-K1 cells transfected with GAL4-SF-1 plasmid, 40 hours incubation; read-out: hSF-1-Luc: EC50
# T1 construct: expressed in transfected cells; host or cells: CHO-K1 cells (Chinese hamster ovary), transient cotransfection with pG5luc
# T1 sequence (Q13285 198-461 limits assumed): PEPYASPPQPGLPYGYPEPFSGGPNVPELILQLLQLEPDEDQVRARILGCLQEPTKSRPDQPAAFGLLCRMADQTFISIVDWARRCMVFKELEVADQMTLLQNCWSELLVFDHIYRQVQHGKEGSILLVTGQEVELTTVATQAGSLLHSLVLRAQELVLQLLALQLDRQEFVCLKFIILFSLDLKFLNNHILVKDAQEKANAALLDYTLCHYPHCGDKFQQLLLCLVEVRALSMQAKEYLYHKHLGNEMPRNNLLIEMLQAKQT
# Text: BamHI and XbaI sites introduced by the primers […] (forward) and […] (reverse) were used for subcloning the amplicon into pFA-CMV.
# Cells were routinely cultured by splitting them from 1:10 to 1:20. […] Four hours after transfection, cells were trypsinized and suspended to a concentration of 1.6×10^5 cells/ml in supplemented Ham's F-12 media.
# Assays: The collected cells were resuspended in the culture medium and plated into a 384 well-white plate (Corning Life Sciences, Acton, MA) at 8,000 cells/50 μL/well.
# Measurement of SF-1 Transcriptional Activity: SF-1 transcriptional activity was detected as the intracellular Luc activity using SteadyLite Plus HTS Reporter Gene Assay System. After the measurement of the cell viability, the culture media in the 384 well-plate were completely removed. Then, 30 μL of the Luc substrate solution was added into each well and incubated for 10 min at room temperature. After the incubation, luminescence of each well was measured by a microplate reader.
# Calculation of the SF-1 Transcriptional Activity (% of Control): The % of control for the transcriptional activity was calculated according to the following equation: % of control=A/B×100 Equation • A: luminescence count in the test article-treated CHO cells transfected with GAL4-SF-1 plasmid • B: mean luminescence count in the vehicle-treated CHO cells transfected with GAL4-SF-1 plasmid
# [1] = system: rat Leydig tumor cell line R2C; assay: R2C proliferation assay for SF-1 antagonists (EdU incorporation); type: cell-based; conditions: for EC50: read-out: R2C: EC50
# Protocol: SF-1 regulates progenitor cell formation and survival in adult Leydig cells. Anti-proliferative effects of SF-1 antagonists using a SF-1+ rat Leydig tumor cell line, R2C, was investigated. Cell proliferation was measured by detecting DNA incorporation of EdU, a nucleoside analogue that can be fluorescently tagged after cell fixation.
# Proliferation of the rat Leydig tumor cell line R2C (ATCC® CCL-97™) was assessed using 5-ethynyl-2′-deoxyuridine (EdU), a nucleoside analogue incorporated during DNA synthesis that can be fluorescently tagged after cell fixation. Cycloheximide, a protein synthesis inhibitor, was used as a positive control for the assay.
# R2C cells are maintained according to a protocol provided by the American Type Culture Collection (ATCC). At the time of assay, R2C cells were diluted to 1.0 million cells/mL with culture medium (F12 medium supplemented with 2% FBS and 1% Penicillin-Streptomycin) and 50 uL of cell suspension seeded into each well of 384-well clear bottom plates. The assay plates were incubated in a humidified, 37° C., 6% CO2 atmosphere for 24 hours. Serially diluted SF-1 antagonists, cycloheximide or vehicle (DMSO) were then applied to the R2C cells and incubated in a humidified, 37° C., 6% CO2 atmosphere for two days. EdU (Invitrogen), at a final concentration of 5 μM, was added to the cells and incubated for an additional 16 hours, after which cells were fixed with 10% formalin.
# Cells were then washed and permeabilized in 0.5% TritonX-100/PBS solution at RT for 1 hour. EdU incorporation was detected by labeling EdU with 6-FAM azide (Lumiprobe) using a copper (I)-catalyzed Click reaction between an azide and alkyne. The reaction mixture consists of 5 mM ascorbic acid, 1 mM CuSO4, 1 μM 6-FAM azide dissolved in PBS buffer. […] For data normalization, the average fluorescence of DMSO wells was defined as 100%, and average fluorescence of 10 μM cycloheximide wells was defined as 0%. Curve fitting and EC50 determination were performed using the variable slope sigmoidal dose-response analysis.
# R2C cells were routinely cultured in R2C culture medium. To assay SF-1 antagonist inhibitory activity, R2C cells were resuspended in the R2C plating medium and plated into a 384 well-clear bottom black plate at 20,000 cells/50 μL/well. […] 10 μL EdU plating solution were then dispensed into each well of assay plate incubated at 37° C., 6% CO2 for two days.
# R2C proliferation is measured by detecting the fluorescent labelled EdU. The R2C assay plates were fixed by dispense 60 μL of 10% formalin into each well, and the plates were incubated at room temperature for 1 hour on an orbital shaker. The plates were washed with 80 μL of PBS three times, and cells were permeabilized by treating with 100 μL of PBS-0.5% TritonX-100 at RT for 1 hour on an orbital shaker. The plates were washed with 80 μL of PBS three times, and after the last wash, 25 μL of PBS was dispensed into each well. 25 μL of 2× mounting mix solution was then added into each well of fixed cells, and the plates were incubated at RT for 30 min in the dark on an orbital shaker. The cells were washed with 80 μL of PBS, three times, and after the last wash, 25 μL of PBS was dispensed into each well. […] The cells were washed with 80 μL of PBS, three times, and after the last wash, 50 μL of PBS was dispensed into each well. Assay plates were sealed with aluminum foil, and fluorescence was measured using a Envision microplate reader.
# The % of control for the proliferation activity was calculated according to the following equation: % of control=100×(A−C)/(B−C) Equation • A: fluorescence count in the test article-treated R2C cells • B: mean fluorescence count in the vehicle-treated R2C cells • C: mean fluorescence count in the 10 μM cycloheximide-treated R2C cells
SMILES,EC50 (human SF-1) [nM],"EC50 ([1]; R2C cells, EdU incorporation) [nM]",EC50 ([1]; R2C) [nM],inhibition at 8 µM ([1]; Leydig) [%]
"Cn1nc(Nc2ccc(C(F)(F)F)cc2)c2ncn(CC(=O)Nc3ccc(OCC(C)(C)O)cc3)c(=O)c21 [Compound 20, N-(4-(2-hydroxy-2-methylpropoxy)phenyl)-2-(1-methyl-7-oxo-3-((4-(trifluoromethyl)phenyl)amino)-1,7-dihydro-6H-pyrazolo[4,3-d]pyrimidin-6-yl)acetamide]",< 200,< 200,,
"Cn1nc(Nc2ccc(C(F)(F)F)nc2)c2ncn(CC(=O)N[C@H]3CC[C@H](OC(F)F)CC3)c(=O)c21 [Compound 65, N-((1r,4r)-4-(difluoromethoxy)cyclohexyl)-2-(1-methyl-7-oxo-3-((6-(trifluoromethyl)pyridin-3-yl)amino)-1,7-dihydro-6H-pyrazolo[4,3-d]pyrimidin-6-yl)acetamide]",< 200,200 to 1000,,
"Cn1nc(Nc2ccc(C(F)(F)F)cn2)c2ncn(CC(=O)N[C@H]3CC[C@H](OC(F)F)CC3)c(=O)c21 [Compound 55, N-((1r,4r)-4-(difluoromethoxy)cyclohexyl)-2-(1-methyl-7-oxo-3-((5-(trifluoromethyl)pyridin-2-yl)amino)-1,7-dihydro-6H-pyrazolo[4,3-d]pyrimidin-6-yl)acetamide]",200 to 1000,1000 to 10000,,
"Cn1nc(Nc2ccc(C(F)(F)F)cc2)c2ncn(CC(=O)N[C@@H]3CCC[C@H](OC(F)F)C3)c(=O)c21 (single isomer, unassigned) [Compound 49]",< 200,,< 200,
"Cn1nc(Nc2ccc(C(F)(F)F)cc2)c2ncn(CC(=O)N[C@H]3CCC[C@H](OC(F)F)C3)c(=O)c21 (single isomer, unassigned) [Compound 43]",< 200,,< 200,
"Cn1nc(Nc2ccc(C(F)(F)F)cc2)c2ncn(CC(=O)N[C@@H]3CCC[C@@H](OC(F)F)C3)c(=O)c21 (single isomer, unassigned) [Compound 44]",< 200,,< 200,
"Cn1nc(Nc2ccc(C(F)(F)F)cn2)c2ncn(CC(=O)N[C@H]3CC[C@H](OCC(C)(C)O)CC3)c(=O)c21 [Compound 52, N-((1r,4r)-4-(2-hydroxy-2-methylpropoxy)cyclohexyl)-2-(1-methyl-7-oxo-3-((5-(trifluoromethyl)pyridin-2-yl)amino)-1,7-dihydro-6H-pyrazolo[4,3-d]pyrimidin-6-yl)acetamide]",1000 to 10000,,,72
"COc1ccc(NC(=O)Cn2cnc3c(Nc4ccc(Cl)cc4)nn(C)c3c2=O)cc1F [Compound 71, 2-(3-((4-chlorophenyl)amino)-1-methyl-7-oxo-1,7-dihydro-6H-pyrazolo[4,3-d]pyrimidin-6-yl)-N-(3-fluoro-4-methoxyphenyl)acetamide]",< 200,,< 200,
"Cn1nc(Nc2ccc(C(F)(F)F)cc2)c2ncn(CC(=O)Nc3ccc(C(C)(C)C(=O)O)cc3)c(=O)c21 [Compound 19, 2-methyl-2-(4-(2-(1-methyl-7-oxo-3-((4-(trifluoromethyl)phenyl)amino)-1,7-dihydro-6H-pyrazolo[4,3-d]pyrimidin-6-yl)acetamido)phenyl)propanoic acid]",200 to 1000,200 to 1000,,
"Cn1nc(Nc2ccc(C(F)(F)F)nc2)c2ncn(CC(=O)N[C@H]3CC[C@H](OCC(C)(C)O)CC3)c(=O)c21 [Compound 68, N-((1r,4r)-4-(2-hydroxy-2-methylpropoxy)cyclohexyl)-2-(1-methyl-7-oxo-3-((6-(trifluoromethyl)pyridin-3-yl)amino)-1,7-dihydro-6H-pyrazolo[4,3-d]pyrimidin-6-yl)acetamide]",200 to 1000,1000 to 10000,,
"Cn1nc(Nc2ccc(C(F)(F)F)cc2)c2ncn(CC(=O)N[C@H]3CCC[C@@H](OC(F)F)C3)c(=O)c21 (single isomer, unassigned) [Compound 48]",< 200,,< 200,
"C[C@@H](CO)Oc1ccc(NC(=O)Cn2cnc3c(Nc4ccc(C(F)(F)F)cc4)nn(C)c3c2=O)cc1 (single isomer, unassigned) [Compound 26]",< 200,< 200,,

# The next lines start with results.
EC50 (human SF-1) [nM],"EC50 ([1]; R2C cells, EdU incorporation) [nM]",SMILES,EC50 ([1]; R2C) [nM],inhibition at 8 µM ([1]; Leydig) [%]
< 200,< 200,"Cn1nc(Nc2ccc(C(F)(F)F)cc2)c2ncn(CC(=O)N[C@H]3CC[C@H](C(C)(C)CO)CC3)c(=O)c21 [Compound 27, N-((trans)-4-(1-hydroxy-2-methylpropan-2-yl)cyclohexyl)-2-(1-methyl-7-oxo-3-((4-(trifluoromethyl)phenyl)amino)-1,7-dihydro-6H-pyrazolo[4,3-d]pyrimidin-6-yl)acetamide]",,
< 200,< 200,"Cn1nc(Nc2ccc(C(F)(F)F)cc2)c2ncn(CC(=O)Nc3ccc(C(C)(C)S(C)(=O)=O)cc3)c(=O)c21 [Compound 12, 2-(1-methyl-7-oxo-3-((4-(trifluoromethyl)phenyl)amino)-1,7-dihydro-6H-pyrazolo[4,3-d]pyrimidin-6-yl)-N-(4-(2-(methylsulfonyl)propan-2-yl)phenyl)acetamide]",,
< 200,< 200,"Cn1nc(Nc2ccc(C(F)(F)F)cc2)c2ncn(CC(=O)N[C@H]3CC[C@H](OCC4CCOCC4)CC3)c(=O)c21 [Compound 39, 2-(1-methyl-7-oxo-3-((4-(trifluoromethyl)phenyl)amino)-1,7-dihydro-6H-pyrazolo[4,3-d]pyrimidin-6-yl)-N-((1r,4r)-4-((tetrahydro-2H-pyran-4-yl)methoxy)cyclohexyl)acetamide]",,
< 200,200 to 1000,"Cn1nc(Nc2ccc(C(F)(F)F)cc2)c2ncn(CC(=O)NCC3CCOCC3)c(=O)c21 [Compound 14, 2-(1-methyl-7-oxo-3-((4-(trifluoromethyl)phenyl)amino)-1,7-dihydro-6H-pyrazolo[4,3-d]pyrimidin-6-yl)-N-((tetrahydro-2H-pyran-4-yl)methyl)acetamide]",,
< 200,200 to 1000,"C[C@H](NC(=O)Cn1cnc2c(Nc3ccc(C(F)(F)F)cc3)nn(C)c2c1=O)C1CCOCC1 [Compound 17, (S)-2-(1-methyl-7-oxo-3-((4-(trifluoromethyl)phenyl)amino)-1,7-dihydro-6H-pyrazolo[4,3-d]pyrimidin-6-yl)-N-(1-(tetrahydro-2H-pyran-4-yl)ethyl)acetamide]",,
< 200,< 200,"COc1ccc(NC(=O)Cn2cnc3c(Nc4ccc(C(F)(F)F)cc4)nn(C)c3c2=O)cc1F [Compound 11, N-(3-fluoro-4-methoxyphenyl)-2-(1-methyl-7-oxo-3-((4-(trifluoromethyl)phenyl)amino)-1,7-dihydro-6H-pyrazolo[4,3-d]pyrimidin-6-yl)acetamide]",,
